Structures are written as SMILES.

Common to all, as to type: cell-based
The subject of series [1] is HIV mutant strain 4 (T97A/E138T/G140S/Q148H). The experiment in a line: Resistance evaluation test, HeLa-CD4 reporter assay, mutant strain 4. The settings on record: FC=EC50 of the mutant strain/EC50 of the wild strain, HeLa-CD4 cells. The method, then: (§1) Serial dilutions of a test sample were prepared in a 96-well microplate (50 μL/well). 2.5×10^5 cells/mL of a HeLa-CD4 cell suspension was dispensed at 100 μL/well to the plate containing the test sample. Then, an HIV virus solution (wild strain and mutant strain) was dispensed at 50 μL/well. The plate was mixed with a plate mixer and cultured for 3 days in a CO2 incubator. The culture supernatant in each well was removed by suction. A cell lysis buffer in a reporter assay kit was dispensed at 100 μL/well, and the plate was frozen in a freezer (−80° C.). The plate frozen in a freezer was thawed at room temperature, then mixed with a plate mixer, and centrifuged at 1,200 rpm for 5 minutes. The supernatant of each well was dispensed at 20 μL/well to a 96-well microplate (BLACK). A chemiluminescent in the reporter assay kit reagent was dispensed at 100 μL/well and reacted at room temperature for approximately 1 hour. Then, luminescence intensity was measured using MicroBeta TRILUX. […] FC=EC50 of the mutant strain/EC50 of the wild strain (Results) The FC for mutant strain 1 (E138K/G140S/Q148H/N155H) and the FC for mutant strain 2 (E92Q/E138T/G140S/Q148H) are shown in the table.

For series [2], the system named is HIV mutant strain 1 (E138K/G140S/Q148H/N155H). The settings on record: FC=EC50 of the mutant strain/EC50 of the wild strain, HeLa-CD4 cells. The method, then: (§2) Serial dilutions of a test sample were prepared in a 96-well microplate (50 μL/well). 2.5×10^5 cells/mL of a HeLa-CD4 cell suspension was dispensed at 100 μL/well to the plate containing the test sample. Then, an HIV virus solution (wild strain and mutant strain) was dispensed at 50 μL/well. The plate was mixed with a plate mixer and cultured for 3 days in a CO2 incubator. The culture supernatant in each well was removed by suction. A cell lysis buffer in a reporter assay kit was dispensed at 100 μL/well, and the plate was frozen in a freezer (−80° C.). The plate frozen in a freezer was thawed at room temperature, then mixed with a plate mixer, and centrifuged at 1,200 rpm for 5 minutes. The supernatant of each well was dispensed at 20 μL/well to a 96-well microplate (BLACK). A chemiluminescent in the reporter assay kit reagent was dispensed at 100 μL/well and reacted at room temperature for approximately 1 hour. Then, luminescence intensity was measured using MicroBeta TRILUX.

Series [3] deals with HIV mutant strain 2 (E92Q/E138T/G140S/Q148H). The settings on record: FC=EC50 of the mutant strain/EC50 of the wild strain, HeLa-CD4 cells. The method, then:
as §2

The test system of a further series is HIV. The experiment in a line: Anti-HIV activity (MT-4 cells, MTT). Conditions: read-out: EC50_nM (50% HIV inhibitory concentration); MT-4 cells, cultured 4 days, MTT. A digest of the protocol:
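MT-4 cells (2.5×10^5 cells/mL) infected with HIV in the presence of serially diluted compound, cultured 4 days in CO2 incubator. Viability read by MTT (1 h), cell lysis, then absorbance at 560 and 690 nm.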

Series [4] concerns HIV mutant strain 3 (E92Q/E138K/G140S/Q148H). The experiment in a line: Resistance evaluation test, HeLa-CD4 reporter assay, mutant strain 3. Conditions: FC=EC50 of the mutant strain/EC50 of the wild strain, HeLa-CD4 cells. How it is done:
as §1
In general terms: Reporter assays use an easily measured gene product as a stand-in for the process of interest.

Series [5] deals with T1, Voltage gated sodium channel (Nav1.5 channel) encoded by SCN5A gene (Homo sapiens, UniProt Q14524).
T1 construct: expressed in transfected cells; host or cells: HEK cells
The experiment in a line: Nav test (QPatch whole cell patch clamp). The settings on record: HEK cells expressing Nav1.5, applied 5 minutes or more, room temperature. The method, then:
A cell was retained at a membrane potential of −100 mV by whole cell patch clamp method using a fully automated patch clamp system (QPatch; Sophion Bioscience A/S), and INa induced by depolarization pulse stimulation at −10 mV for 20 ms was recorded. […] The extracellular solution in which the medium and the compound of the present invention had been dissolved at each objective concentration was applied to the cell for 5 minutes or more under conditions of room temperature.
(The patch-clamp technique gives a direct electrical read-out from membranes.)

T1 sequence (Q14524 whole entry): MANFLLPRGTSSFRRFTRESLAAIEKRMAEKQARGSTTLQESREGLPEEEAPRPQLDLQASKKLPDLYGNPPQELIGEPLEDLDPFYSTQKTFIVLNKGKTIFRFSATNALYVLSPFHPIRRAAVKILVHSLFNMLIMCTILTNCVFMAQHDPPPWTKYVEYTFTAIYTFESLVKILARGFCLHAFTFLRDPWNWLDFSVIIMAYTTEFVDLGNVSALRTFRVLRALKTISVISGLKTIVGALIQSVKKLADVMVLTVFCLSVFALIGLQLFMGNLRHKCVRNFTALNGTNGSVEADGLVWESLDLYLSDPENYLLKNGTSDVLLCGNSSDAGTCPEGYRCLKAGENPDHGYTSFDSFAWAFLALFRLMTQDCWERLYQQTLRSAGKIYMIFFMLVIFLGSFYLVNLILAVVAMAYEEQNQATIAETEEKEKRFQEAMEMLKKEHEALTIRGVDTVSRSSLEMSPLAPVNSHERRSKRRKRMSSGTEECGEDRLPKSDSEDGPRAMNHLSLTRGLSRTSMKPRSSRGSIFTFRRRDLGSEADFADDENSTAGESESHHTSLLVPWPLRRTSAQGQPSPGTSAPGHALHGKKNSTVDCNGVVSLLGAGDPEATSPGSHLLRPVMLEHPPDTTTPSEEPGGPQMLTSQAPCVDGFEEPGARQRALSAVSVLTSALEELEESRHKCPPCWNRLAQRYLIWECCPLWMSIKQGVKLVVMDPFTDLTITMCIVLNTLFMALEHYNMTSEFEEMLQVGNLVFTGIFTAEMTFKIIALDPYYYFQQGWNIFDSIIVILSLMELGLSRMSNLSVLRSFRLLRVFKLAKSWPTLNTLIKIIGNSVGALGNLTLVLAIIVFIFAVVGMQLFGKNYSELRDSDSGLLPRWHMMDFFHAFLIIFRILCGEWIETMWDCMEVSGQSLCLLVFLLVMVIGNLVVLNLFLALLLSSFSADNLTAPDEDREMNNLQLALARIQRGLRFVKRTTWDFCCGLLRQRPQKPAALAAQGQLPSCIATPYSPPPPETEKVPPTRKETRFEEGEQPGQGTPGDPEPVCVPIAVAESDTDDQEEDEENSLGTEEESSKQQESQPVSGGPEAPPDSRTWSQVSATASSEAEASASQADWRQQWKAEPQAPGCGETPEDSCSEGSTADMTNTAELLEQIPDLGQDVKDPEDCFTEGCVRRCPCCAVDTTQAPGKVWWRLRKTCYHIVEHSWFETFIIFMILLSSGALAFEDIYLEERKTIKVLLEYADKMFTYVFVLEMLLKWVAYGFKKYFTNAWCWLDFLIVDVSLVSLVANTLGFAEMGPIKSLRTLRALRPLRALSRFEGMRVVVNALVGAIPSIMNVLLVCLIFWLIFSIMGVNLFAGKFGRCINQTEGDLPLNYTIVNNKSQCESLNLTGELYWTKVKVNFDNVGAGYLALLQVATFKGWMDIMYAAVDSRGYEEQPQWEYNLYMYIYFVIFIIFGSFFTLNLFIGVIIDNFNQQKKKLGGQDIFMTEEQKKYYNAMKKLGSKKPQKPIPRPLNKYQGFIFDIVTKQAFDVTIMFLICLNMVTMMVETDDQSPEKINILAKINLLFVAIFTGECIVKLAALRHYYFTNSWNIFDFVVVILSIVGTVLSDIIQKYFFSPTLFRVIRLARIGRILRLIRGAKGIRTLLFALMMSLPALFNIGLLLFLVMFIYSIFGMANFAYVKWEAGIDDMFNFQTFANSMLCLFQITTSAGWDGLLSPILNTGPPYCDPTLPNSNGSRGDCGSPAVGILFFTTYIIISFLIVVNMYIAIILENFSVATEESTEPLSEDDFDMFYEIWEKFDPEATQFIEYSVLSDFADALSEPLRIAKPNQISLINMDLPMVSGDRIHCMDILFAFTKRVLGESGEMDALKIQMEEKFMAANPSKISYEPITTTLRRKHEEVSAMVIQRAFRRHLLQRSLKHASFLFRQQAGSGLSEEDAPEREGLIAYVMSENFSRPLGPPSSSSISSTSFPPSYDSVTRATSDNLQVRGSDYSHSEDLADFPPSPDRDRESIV

Take `CCN1C(=O)c2c(O)c(=O)c(-c3nnc(Cc4ccc(F)cc4F)s3)cn2N2CCCC[C@@H]12` [Compound I-002]: in series [1], the “FC for mutant strain 4” value came out at 3.2. In series [2], the “FC (fold change) for mutant strain 1” value is reported as 5.6. Further, the “FC (fold change) for mutant strain 2” value in series [3] turned out to be 7.5. Further, the EC50 with HIV stood at 3.2 nM. For the same compound, the “FC for mutant strain 3” value in series [4] is 7.7. In addition, in series [5], the “ratio of maximum peak current (INa) with compound relative to medium” value is listed as 102%.

The record behind these values is patent publication US11453669B2, “Polycyclic pyridone derivative” (Shionogi & Co., Ltd., priority 2018, dated 2022).
